{"source": "patent US7862844B2", "about": "“Taste improving substances” (Quest International Services B.V., priority 2005, dated 2011)", "key": {"[1]": {"test": "tasting different fractions of the Example 1 product (LC-MS, 1H NMR identification)", "conditions": "fractions of the lactic acid/GMP reaction product of Example 1", "protocol": "1000 g of lactic acid (about 90% pure), 50 g of NaCl and 250 g of GMP were thoroughly mixed. The mixture was heated and stirred at 100° C. for 4 hour. The mixture was cooled to 60° C. and 4000 g of ethyl acetate was added. The mixture was stirred for 1 h. Next, the mixture was filtered over a glass filter and the filter residue was washed with 1000 g ethyl acetate. Thus, 362 g of an almost white powder was obtained. The main taste components of the obtained product were identified by LC-MS and tasting different fractions."}, "[2]": {"test": "samples tasted by a professional panel", "protocol": "The following samples were prepared:\nA: 0.6% NaCl and 0.03% MSG\nB: 0.01% Fraction 2 as obtained in example 1\nC: 0.6% NaCl and 0.03% MSG and 0.5 ppt Fraction B as obtained in example 1\nD: 0.6% NaCl and 0.03% MSG and 0.4 ppb Fraction A as obtained in example 1\nThe samples were tasted by a professional panel and described as follows: […]"}}, "data": [{"substance": "N-Lactoyl-GMP [Fraction B]", "values": [{"measurement": "taste of the fractions containing the substance", "setting": "[1]", "value": "“long-lasting” and “kokumi”"}, {"measurement": "taste description by professional panel", "setting": "[2]; sample B: 0.01% of the fraction alone", "value": "mild acidic, late onset umami, kokumi, full, sweet, very lingering"}, {"measurement": "taste description by professional panel", "setting": "[2]; sample C: 0.5 ppt of the fraction with 0.6% NaCl and 0.03% MSG (base alone: salty, umami)", "value": "salty, umami, full, mouthfeel, kokumi, salivating and very lingering"}]}, {"substance": "O-Lactoyl-GMP [Fraction A]", "values": [{"measurement": "taste of the fractions containing the substance", "setting": "[1]", "value": "“long-lasting” and “kokumi”"}, {"measurement": "taste description by professional panel", "setting": "[2]; sample D: 0.4 ppb of the fraction with 0.6% NaCl and 0.03% MSG (base alone: salty, umami)", "value": "salty, umami, full, after taste and lingering"}]}]}
